Measurements published in patent US11041000B2, “Peptide inhibitors of interleukin-23 receptor and their use to treat inflammatory diseases” (priority 2019, dated 2021).
Numbered stars: 1 amine (or outer) side, 2 acyl side, 3 side chain; on linkers, the order of the positions; unused ones are H or OH. Bridge positions count the residues as written; N and C are the ends. Square brackets hold non-standard residues; d marks the D form. Peptide text beside a SMILES is read from it. X3 = CCc1ccc2c(C[C@H](N[*:1])C(=O)[*:2])c[nH]c2c1; Trp(7-Me) = Cc1cccc2c(C[C@H](N)C(=O)O)c[nH]c12; Abu(4-yl) = O=C([C@H](CC[*:3])N[*:1])[*:2]; 2Nal = N[C@@H](Cc1ccc2ccccc2c1)C(=O)O; AEF = NCCOc1ccc(C[C@H](N)C(=O)O)cc1; αMeF = C[C@](N)(Cc1ccccc1)C(=O)O; Cit = NC(=O)NCCC[C@H](N)C(=O)O; Pen = CC(C)(S)[C@H](N)C(=O)O; αMeK = C[C@](N)(CCCCN)C(=O)O; Dab = NCC[C@H](N)C(=O)O; Aib = CC(C)(N)C(=O)O; Sar = CNCC(=O)O

Experiments:
Assay type in all cases: in vitro ADME
[1] = Stability in rat plasma; details: both sexes, SD rat plasma, EDTA, 37° C., read-out: t½: Rat Plasma EDTA (converted)
[2] = Stability in simulated intestinal fluid (SIF); details: simulated intestinal fluid with pancreatin, pH 6.8, 37° C., matrix is 100 fold dilution of standard SIF concentration; for SIF t½: 20 μM; for half-life at 20 μM: read-out: SIF t½ (converted)
[3] = Stability in human fecal homogenate; details: 20% fecal homogenate (supernatant), pH 6.8, 20% human fecal homogenate, anaerobic, 37° C., read-out: t½: Human Feces anaerobic (converted)
Method: (§1) Centrifuged the homogenate at 2800×g for 15 min. The supernatant is taken out and used for incubations. […] The final test compound concentration was 20 μM.

[4] = Stability in cynomolgus monkey fecal homogenate; details: 20% fecal homogenate (supernatant), pH 6.8, 20% cynomolgus monkey fecal homogenate, anaerobic, 37° C., read-out: t½: Monkey Feces anaerobic (converted)
Method: as §1

half-life at 20 μM [1] [h]	SIF t½ [2] [h]	half-life at 20 μM [3] [h]	half-life at 20 μM [4] [h]	half-life at 20 μM [2] [h]	SMILES
24		> 24	> 24	19	CC(=O)NCCCC[C@H](NC(=O)[C@](C)(CCCCN)NC(=O)[C@H](Cc1ccc2ccccc2c1)NC(=O)[C@H](Cc1ccc(OCCN)cc1)NC(=O)[C@H]1NC(=O)[C@H](CCCNC(N)=O)NC(=O)[C@H](Cc2c[nH]c3c(C)cccc23)NC(=O)[C@H]([C@@H](C)O)NC(=O)[C@H](CC(N)=O)NC(=O)[C@@H](NC(C)=O)C(C)(C)SSC1(C)C)C(=O)N[C@@H](CC(N)=O)C(=O)NC(C)(C)C(=O)N[C@H](Cc1ccccc1)C(N)=O [compound 346] (Ac-[Pen]NT[Trp(7-Me)][Cit][Pen][AEF][2Nal][αMeK]K(Ac)N[Aib][dF]-NH2; disulfide 1-6)
> 24		> 24	> 24	9	CC(=O)NCCCC[C@H](NC(=O)[C@](C)(CCCCN)NC(=O)[C@H](Cc1ccc2ccccc2c1)NC(=O)[C@H](Cc1ccc(OCCN)cc1)NC(=O)[C@H]1NC(=O)[C@H](CCCNC(N)=O)NC(=O)[C@H](Cc2c[nH]c3c(C)cccc23)NC(=O)[C@H]([C@@H](C)O)NC(=O)[C@H](CC(N)=O)NC(=O)[C@@H](NC(C)=O)C(C)(C)SSC1(C)C)C(=O)N[C@@H](CC(N)=O)C(=O)NC(C)(C)C(=O)N[C@H](CCCCN)C(N)=O [compound 344] (Ac-[Pen]NT[Trp(7-Me)][Cit][Pen][AEF][2Nal][αMeK]K(Ac)N[Aib][dK]-NH2; disulfide 1-6)
> 24		> 24	> 24	12	CC(=O)NCCCC[C@H](NC(=O)[C@](C)(CCCCN)NC(=O)[C@H](Cc1ccc2ccccc2c1)NC(=O)[C@H](Cc1ccc(OCCN)cc1)NC(=O)[C@H]1NC(=O)[C@H](CCCNC(N)=O)NC(=O)[C@H](Cc2c[nH]c3c(C)cccc23)NC(=O)[C@H]([C@@H](C)O)NC(=O)[C@H](CC(N)=O)NC(=O)[C@@H](NC(C)=O)C(C)(C)SSC1(C)C)C(=O)N[C@@H](CC(N)=O)C(=O)NC(C)(C)C(=O)N[C@H](Cc1ccc(O)cc1)C(N)=O [compound 347] (Ac-[Pen]NT[Trp(7-Me)][Cit][Pen][AEF][2Nal][αMeK]K(Ac)N[Aib][dY]-NH2; disulfide 1-6)
> 24	24	> 24	> 24		CC(=O)NCCCC[C@@H]1NC(=O)[C@H](Cc2c[nH]c3c(C)cccc23)NC(=O)[C@H]([C@@H](C)O)NC(=O)[C@H](CC(N)=O)NC(=O)[C@@H](NC(C)=O)C(C)(C)SSC(C)(C)[C@@H](C(=O)N[C@@H](Cc2ccc(OCCN)cc2)C(=O)N[C@@H](Cc2ccc3ccccc3c2)C(=O)N[C@@](C)(CCCCN)C(=O)N[C@@H](CCCCNC(=O)CC(F)(F)F)C(=O)N[C@@H](CC(N)=O)C(=O)N[C@H](CC(C)C)C(N)=O)NC1=O [compound 360]
> 24	24	> 24	> 24		CCCCC(=O)NCCCC[C@H](NC(=O)[C@](C)(CCCCN)NC(=O)[C@H](Cc1ccc2ccccc2c1)NC(=O)[C@H](Cc1ccc(OCCN)cc1)NC(=O)[C@H]1NC(=O)[C@H](CCCCNC(C)=O)NC(=O)[C@H](Cc2c[nH]c3c(C)cccc23)NC(=O)[C@H]([C@@H](C)O)NC(=O)[C@H](CC(N)=O)NC(=O)[C@@H](NC(C)=O)C(C)(C)SSC1(C)C)C(=O)N[C@@H](CC(N)=O)C(=O)N[C@H](CC(C)C)C(N)=O [compound 361]
> 24		> 24	> 24	10	CC(=O)NCCCC[C@@H]1NC(=O)[C@H](Cc2c[nH]c3c(C)cccc23)NC(=O)[C@H]([C@@H](C)O)NC(=O)[C@H](CCCNC(=N)N)NC(=O)[C@@H](NC(C)=O)C(C)(C)SSC(C)(C)[C@@H](C(=O)N[C@@H](Cc2ccc(OCCN)cc2)C(=O)N[C@@H](Cc2ccc3ccccc3c2)C(=O)N[C@@](C)(CCCCN)C(=O)N[C@@H](CCCCNC(C)=O)C(=O)N[C@@H](CC(N)=O)C(=O)N[C@H](CC(C)C)C(N)=O)NC1=O [compound 336] (Ac-[Pen]RT[Trp(7-Me)]K(Ac)[Pen][AEF][2Nal][αMeK]K(Ac)N[dL]-NH2; disulfide 1-6)
> 24	24	> 24	> 24		CCc1ccc2c(C[C@@H]3NC(=O)[C@H]([C@@H](C)O)NC(=O)[C@H](CC(N)=O)NC(=O)[C@@H](NC(C)=O)C(C)(C)SSC(C)(C)[C@@H](C(=O)N[C@@H](Cc4ccc(OCCN)cc4)C(=O)N[C@@H](Cc4ccc5ccccc5c4)C(=O)N[C@@](C)(CCCCN)C(=O)N[C@@H](CCCCNC(C)=O)C(=O)N[C@@H](CC(N)=O)C(=O)N[C@H](CCCCN)C(N)=O)NC(=O)[C@H](CCCCNC(C)=O)NC3=O)c[nH]c2c1 [compound 349] (Ac-[Pen]NT[X3]K(Ac)[Pen][AEF][2Nal][αMeK]K(Ac)N[dK]-NH2; disulfide 1-6)

More lines, now with the values behind:

SMILES	half-life at 20 μM [1] [h]	SIF t½ [2] [h]	half-life at 20 μM [3] [h]	half-life at 20 μM [4] [h]	half-life at 20 μM [2] [h]
COc1cccc2c(C[C@@H]3NC(=O)[C@H]([C@@H](C)O)NC(=O)[C@H](CC(N)=O)NC(=O)[C@@H](NC(C)=O)C(C)(C)SSC(C)(C)[C@@H](C(=O)N[C@@H](Cc4ccc(OCCN)cc4)C(=O)N[C@@H](Cc4ccc5ccccc5c4)C(=O)N[C@@](C)(CCCCN)C(=O)N[C@@H](CCCCNC(C)=O)C(=O)N[C@@H](CC(N)=O)C(=O)N[C@H](CCCCN)C(N)=O)NC(=O)[C@H](CCCCNC(C)=O)NC3=O)c[nH]c12 [compound 299]	> 24	24	> 24	> 24	
CC(=O)NCCCC[C@@H]1NC(=O)[C@H](Cc2c[nH]c3c(C)cccc23)NC(=O)[C@H]([C@@H](C)O)NC(=O)[C@H](CCNC(C)=O)NC(=O)[C@@H](NC(C)=O)C(C)(C)SSC(C)(C)[C@@H](C(=O)N[C@@H](Cc2ccc(OCCN)cc2)C(=O)N[C@@H](Cc2ccc3ccccc3c2)C(=O)N[C@@](C)(CCCCN)C(=O)N[C@@H](CCCCNC(C)=O)C(=O)N[C@@H](CC(N)=O)C(=O)N[C@H](CC(C)C)C(N)=O)NC1=O [compound 335] (Ac-[Pen][Dab](Ac)T[Trp(7-Me)]K(Ac)[Pen][AEF][2Nal][αMeK]K(Ac)N[dL]-NH2; disulfide 1-6)	> 24		> 24	> 24	20
CC(=O)NCCCC[C@@H]1NC(=O)[C@H](Cc2c[nH]c3c(C)cccc23)NC(=O)[C@H]([C@@H](C)O)NC(=O)[C@H](CO)NC(=O)[C@@H](NC(C)=O)C(C)(C)SSC(C)(C)[C@@H](C(=O)N[C@@H](Cc2ccc(OCCN)cc2)C(=O)N[C@@H](Cc2ccc3ccccc3c2)C(=O)N[C@@](C)(CCCCN)C(=O)N[C@@H](CCCCNC(C)=O)C(=O)N[C@@H](CC(N)=O)C(=O)N[C@H](CC(C)C)C(N)=O)NC1=O [compound 334] (Ac-[Pen]ST[Trp(7-Me)]K(Ac)[Pen][AEF][2Nal][αMeK]K(Ac)N[dL]-NH2; disulfide 1-6)	> 24	24	> 24	> 24	
CC(=O)NCCCC[C@@H]1NC(=O)[C@H](Cc2c[nH]c3c(C)cccc23)NC(=O)[C@H]([C@@H](C)O)NC(=O)[C@H](CCC(N)=O)NC(=O)[C@@H](NC(=O)[C@@H](CCCNC(=N)N)NC(C)=O)CCSC[C@@H](C(=O)N[C@@H](Cc2ccc(OCCN)cc2)C(=O)N[C@@H](Cc2ccc3ccccc3c2)C(=O)N[C@@](C)(CCCCN)C(=O)N[C@@H](CCCCNC(C)=O)C(=O)N[C@@H](CC(N)=O)C(=O)N[C@H](CCCCN)C(=O)N(C)CC(N)=O)NC1=O [compound 323] (Ac-[dR][Abu(4-yl)]QT[Trp(7-Me)]K(Ac)C[AEF][2Nal][αMeK]K(Ac)N[dK][Sar]-NH2; thioether 2-7)	> 24		> 24	13	20
CC(=O)NCCCC[C@@H]1NC(=O)[C@H](Cc2c[nH]c3c(C)cccc23)NC(=O)[C@H]([C@@H](C)O)NC(=O)[C@H](CCC(N)=O)NC(=O)[C@@H](NC(=O)[C@@H](CCCNC(=N)N)NC(C)=O)CCSC[C@@H](C(=O)N[C@@H](Cc2ccc(OCCN)cc2)C(=O)N[C@@H](Cc2ccc3ccccc3c2)C(=O)N[C@@](C)(CCCCN)C(=O)N[C@@H](CCCCNC(C)=O)C(=O)N[C@@H](CC(N)=O)C(=O)N[C@@](C)(Cc2ccccc2)C(N)=O)NC1=O [compound 327] (Ac-[dR][Abu(4-yl)]QT[Trp(7-Me)]K(Ac)C[AEF][2Nal][αMeK]K(Ac)N[αMeF]-NH2; thioether 2-7)	> 24	24	> 24	24	
COc1cccc2c(C[C@@H]3NC(=O)[C@H]([C@@H](C)O)NC(=O)[C@H](CC(N)=O)NC(=O)[C@@H](NC(C)=O)C(C)(C)SSC(C)(C)[C@@H](C(=O)N[C@@H](Cc4ccc(OCCN)cc4)C(=O)N[C@@H](Cc4ccc5ccccc5c4)C(=O)N[C@@](C)(CCCCN)C(=O)N[C@@H](CCCCNC(C)=O)C(=O)N[C@@H](CC(N)=O)C(=O)N[C@H](CCCCN)C(N)=O)NC(=O)[C@H](CCC(N)=O)NC3=O)c[nH]c12 [compound 297]	> 24	24	> 24	> 24	
CC(=O)NCCCC[C@@H]1NC(=O)[C@H](Cc2c[nH]c3c(C)cccc23)NC(=O)[C@H]([C@@H](C)O)NC(=O)[C@H](CCC(N)=O)NC(=O)[C@@H](NC(=O)[C@@H](CCCNC(=N)N)NC(C)=O)CCSC[C@@H](C(=O)N[C@@H](Cc2ccc(OCCN)cc2)C(=O)N[C@@H](Cc2ccc3ccccc3c2)C(=O)N[C@@](C)(CCCCN)C(=O)N[C@@H](CCCCNC(C)=O)C(=O)N[C@@H](CC(N)=O)C(=O)N[C@H](CCCCN)C(N)=O)NC1=O [compound 324] (Ac-[dR][Abu(4-yl)]QT[Trp(7-Me)]K(Ac)C[AEF][2Nal][αMeK]K(Ac)N[dK]-NH2; thioether 2-7)	> 24		> 24	13	13
